Values of other authors as cited in patent publication US5565606A, “Synthesis of peptide aminoalkylamides and peptide hydrazides by the solid-phase method” (Hoechst Aktiengesellschaft, priority 1986, dated 1996).
Like-named read-outs stand apart in the source and are kept apart here.

Legend:
[1] = test system: amnesia induced by electric shock or scopolamine; settings: s.c. administration, mice; from EP-A 179 332
urge to groom and move = settings: rats, from EP-A 179 332
[2] = test system: choline content in the striatum; settings: rats, s.c. administration of 10 μg; from EP-A 179 332

Met(O)-Glu-His-Phe-D-Lys-Phe-NH-(CH2)8 -NH2
minimum effective dose, weakening of amnesia [1]: 0.03 µg/kg

benzyloxycarbonyl-D-Lys-Phe-NH-(CH2)8 -NH2.2HCl
urge to groom and move (urge to groom and move; i.c.v. administration of 1 μg): the same action

benzyloxycarbonyl-Lys-Phe-OMe
urge to groom and move (urge to groom and move; i.c.v. administration of 10 μg): cause the urge to groom and move | choline content in the striatum [2]: increased
